Source: the NIST ThermoML archive (doi:10.1016/j.jct.2018.09.009)

Legend:
[1] = xn = mol fraction of the nth substance listed; conditions: Liquid, isochoric method
[2] = molar heat capacity at constant volume; xn = mol fraction of the nth substance listed; conditions: Liquid, Vacuum adiabatic calorimetry

C=C(F)C(F)(F)F [2,3,3,3-tetrafluoro-1-propene] + CCC
Conditions	mass density [kg/m3]	molar heat capacity at constant volume [J/K/mol]
[1], 254.28 K, 1867 kPa, x1 = 0.607	969.9	–
[1], 255.92 K, 1645 kPa, x1 = 0.825	1109.8	–
[1], 256.67 K, 3513 kPa, x1 = 0.607	969.4	–
[1], 258.25 K, 3241 kPa, x1 = 0.825	1109.2	–
[1], 259.05 K, 5156 kPa, x1 = 0.607	968.9	–
[1], 260.61 K, 4872 kPa, x1 = 0.825	1108.7	–
[1], 261.41 K, 6787 kPa, x1 = 0.607	968.5	–
[1], 262.96 K, 6492 kPa, x1 = 0.825	1108.1	–
[1], 263.78 K, 8419 kPa, x1 = 0.607	968	–
[1], 265.27 K, 8092 kPa, x1 = 0.825	1107.6	–
[1], 266.11 K, 10027 kPa, x1 = 0.607	967.5	–
[1], 267.59 K, 9690 kPa, x1 = 0.825	1107	–
[1], 268.42 K, 11618 kPa, x1 = 0.607	967	–
[1], 269.9 K, 11286 kPa, x1 = 0.825	1106.5	–
[1], 270.72 K, 13214 kPa, x1 = 0.607	966.5	–
[1], 272.22 K, 12888 kPa, x1 = 0.825	1105.9	–
[1], 290.26 K, 1730 kPa, x1 = 0.521	821.2	–
[1], 292.5 K, 2803 kPa, x1 = 0.521	820.9	–
[1], 294.78 K, 3896 kPa, x1 = 0.521	820.6	–
[1], 297.13 K, 5024 kPa, x1 = 0.521	820.3	–
[1], 299.47 K, 6148 kPa, x1 = 0.521	820	–
[1], 301.86 K, 7296 kPa, x1 = 0.521	819.7	–
[1], 304.23 K, 8438 kPa, x1 = 0.521	819.4	–
[1], 306.62 K, 9582 kPa, x1 = 0.521	819.1	–
[1], 309.04 K, 10744 kPa, x1 = 0.521	818.8	–
[1], 311.5 K, 11920 kPa, x1 = 0.521	818.5	–
[1], 313.73 K, 1699 kPa, x1 = 0.285	626	–
[1], 313.86 K, 13057 kPa, x1 = 0.521	818.2	–
[1], 316.16 K, 2581 kPa, x1 = 0.285	625.9	–
[1], 318.63 K, 3477 kPa, x1 = 0.285	625.7	–
[1], 321.06 K, 4361 kPa, x1 = 0.285	625.5	–
[1], 323.51 K, 5252 kPa, x1 = 0.285	625.3	–
[1], 326.04 K, 6172 kPa, x1 = 0.285	625.1	–
[1], 328.54 K, 7079 kPa, x1 = 0.285	624.9	–
[1], 331.04 K, 7988 kPa, x1 = 0.285	624.7	–
[1], 333.51 K, 8883 kPa, x1 = 0.285	624.5	–
[1], 336.01 K, 9790 kPa, x1 = 0.285	624.3	–
[1], 338.48 K, 10686 kPa, x1 = 0.285	624.1	–
[1], 340.94 K, 11578 kPa, x1 = 0.285	624	–
[1], 343.4 K, 12468 kPa, x1 = 0.285	623.8	–
[1], 345.88 K, 13366 kPa, x1 = 0.285	623.6	–
[1], 348.3 K, 14239 kPa, x1 = 0.285	623.4	–
[2], 255.48 K, 2690 kPa, x1 = 0.607	–	81.79
[2], 257.09 K, 2443 kPa, x1 = 0.825	–	89.48
[2], 257.86 K, 4335 kPa, x1 = 0.607	–	82.48
[2], 259.43 K, 4057 kPa, x1 = 0.825	–	89.48
[2], 260.23 K, 5972 kPa, x1 = 0.607	–	82.92
[2], 261.79 K, 5682 kPa, x1 = 0.825	–	90.4
[2], 262.6 K, 7603 kPa, x1 = 0.607	–	82.74
[2], 264.12 K, 7292 kPa, x1 = 0.825	–	90.81
[2], 264.95 K, 9223 kPa, x1 = 0.607	–	83.87
[2], 266.43 K, 8891 kPa, x1 = 0.825	–	90.2
[2], 267.27 K, 10823 kPa, x1 = 0.607	–	83.61
[2], 268.75 K, 10488 kPa, x1 = 0.825	–	91.52
[2], 269.57 K, 12416 kPa, x1 = 0.607	–	84.82
[2], 271.06 K, 12087 kPa, x1 = 0.825	–	91.21
[2], 275.52 K, 2097 kPa, x1 = 0.825	–	93.05
[2], 276.02 K, 1993 kPa, x1 = 0.607	–	87.59
[2], 277.84 K, 3440 kPa, x1 = 0.825	–	93.86
[2], 278.37 K, 3320 kPa, x1 = 0.607	–	87.07
[2], 280.2 K, 4817 kPa, x1 = 0.825	–	94.67
[2], 280.75 K, 4661 kPa, x1 = 0.607	–	88.46
[2], 282.57 K, 6197 kPa, x1 = 0.825	–	95.49
[2], 283.13 K, 6012 kPa, x1 = 0.607	–	88.11
[2], 284.92 K, 7561 kPa, x1 = 0.825	–	95.18
[2], 285.51 K, 7357 kPa, x1 = 0.607	–	88.54
[2], 287.24 K, 8908 kPa, x1 = 0.825	–	95.69
[2], 287.89 K, 8694 kPa, x1 = 0.607	–	88.89
[2], 289.57 K, 10249 kPa, x1 = 0.825	–	96.1
[2], 290.27 K, 10038 kPa, x1 = 0.607	–	89.15
[2], 291.9 K, 11593 kPa, x1 = 0.825	–	97.32
[2], 292.66 K, 11390 kPa, x1 = 0.607	–	89.15
[2], 295.03 K, 12722 kPa, x1 = 0.607	–	89.41
[2], 295.93 K, 1917 kPa, x1 = 0.825	–	96.81
[2], 298.32 K, 3042 kPa, x1 = 0.825	–	97.73
[2], 300.77 K, 4193 kPa, x1 = 0.825	–	97.63
[2], 302.78 K, 1793 kPa, x1 = 0.607	–	91.49
[2], 303.23 K, 5349 kPa, x1 = 0.825	–	97.53
[2], 305.28 K, 2835 kPa, x1 = 0.607	–	91.83
[2], 305.69 K, 6504 kPa, x1 = 0.825	–	99.26
[2], 307.82 K, 3898 kPa, x1 = 0.607	–	91.4
[2], 308.14 K, 7659 kPa, x1 = 0.825	–	98.75
[2], 310.37 K, 4961 kPa, x1 = 0.607	–	92.35
[2], 310.6 K, 8808 kPa, x1 = 0.825	–	100.68
[2], 312.91 K, 6022 kPa, x1 = 0.607	–	93.48
[2], 313.06 K, 9957 kPa, x1 = 0.825	–	100.58
[2], 314.95 K, 2140 kPa, x1 = 0.285	–	84.58
[2], 315.46 K, 7086 kPa, x1 = 0.607	–	93.82
[2], 315.53 K, 11107 kPa, x1 = 0.825	–	102.31
[2], 317.06 K, 2127 kPa, x1 = 0.521	–	93.58
[2], 317.4 K, 3029 kPa, x1 = 0.285	–	85.48
[2], 318.01 K, 8150 kPa, x1 = 0.607	–	94.52
[2], 319.49 K, 2066 kPa, x1 = 0.825	–	102.21
[2], 319.6 K, 2994 kPa, x1 = 0.521	–	93.99
[2], 319.85 K, 3919 kPa, x1 = 0.285	–	86.63
[2], 320.54 K, 9207 kPa, x1 = 0.607	–	95.55
[2], 322.06 K, 2960 kPa, x1 = 0.825	–	103.02
[2], 322.15 K, 3867 kPa, x1 = 0.521	–	94.07
[2], 322.29 K, 4807 kPa, x1 = 0.285	–	87.15
[2], 323.08 K, 10263 kPa, x1 = 0.607	–	96.25
[2], 324.62 K, 3854 kPa, x1 = 0.825	–	104.35
[2], 324.7 K, 4739 kPa, x1 = 0.521	–	94.55
[2], 324.78 K, 5712 kPa, x1 = 0.285	–	87.47
[2], 325.63 K, 11326 kPa, x1 = 0.607	–	96.68
[2], 327.17 K, 4744 kPa, x1 = 0.825	–	105.16
[2], 327.23 K, 5608 kPa, x1 = 0.521	–	95.28
[2], 327.29 K, 6626 kPa, x1 = 0.285	–	87.72
[2], 329.73 K, 5637 kPa, x1 = 0.825	–	105.87
[2], 329.76 K, 6474 kPa, x1 = 0.521	–	95.44
[2], 329.79 K, 7534 kPa, x1 = 0.285	–	87.53
[2], 332.28 K, 8436 kPa, x1 = 0.285	–	87.98
[2], 332.3 K, 6534 kPa, x1 = 0.825	–	105.97
[2], 332.3 K, 7345 kPa, x1 = 0.521	–	94.79
[2], 334.76 K, 9337 kPa, x1 = 0.285	–	88.36
[2], 334.85 K, 7427 kPa, x1 = 0.825	–	106.28
[2], 334.85 K, 8221 kPa, x1 = 0.521	–	95.92
[2], 337.25 K, 10238 kPa, x1 = 0.285	–	88.81
[2], 337.4 K, 8319 kPa, x1 = 0.825	–	106.89
[2], 337.4 K, 9098 kPa, x1 = 0.521	–	96.32
[2], 339.71 K, 11132 kPa, x1 = 0.285	–	88.87
[2], 339.93 K, 9963 kPa, x1 = 0.521	–	96.24
[2], 339.94 K, 9209 kPa, x1 = 0.825	–	106.69
[2], 342.17 K, 12023 kPa, x1 = 0.285	–	89.07
[2], 342.44 K, 10822 kPa, x1 = 0.521	–	96.32
[2], 342.47 K, 10092 kPa, x1 = 0.825	–	106.89
[2], 344.64 K, 12917 kPa, x1 = 0.285	–	89.19
[2], 344.94 K, 11680 kPa, x1 = 0.521	–	96.56
[2], 345.02 K, 10985 kPa, x1 = 0.825	–	107.2
[2], 347.09 K, 13803 kPa, x1 = 0.285	–	89.32
[2], 347.44 K, 12532 kPa, x1 = 0.521	–	96.89
[2], 347.55 K, 11870 kPa, x1 = 0.825	–	106.38
